Assay results published in US20190224222A1, “METHOD OF INHIBITING QUORUM SENSING USING D-GALACTOSE” (Seoul National University R&DB Foundation, priority 2014, published 2019).

Key:
[1] = system: T. forsythia (Tf) biofilm; test: Tf biofilm formation induced by Fn secretory material, transwell, crystal violet; type: cell-based; conditions: for OD590: Fn upper / Tf lower chamber, sugar 2 mM, 48-72 h, Fn/Tf control 0.55, Tf alone 0.17
Description: (§1) In order to examine efficacies of quorum sensing inhibitor (QSI) candidates on biofilm formation of periodontopathogenic bacteria which is induced by a secretory material of F. nucleatum (Fn), a test was performed using a transwell system. AI-2 naturally secreted by Fn is contained in the secretory material of Fn. Therefore, in the test using the transwell system, Fn AI-2 was not directly added to bacteria, but Fn was put in an upper chamber and Pg or Tf was put in a lower chamber. Biofilms cultured and formed in the presence or absence of QSI candidates were stained with crystal violet, followed by analysis. These conditions are to evaluate whether Pg or Tf biofilm formation is influenced by not a purified AI-2 but an AI-2-containing secretory material naturally secreted by Fn, and whether QSI candidates such as D-gal is able to inhibit the biofilm formation if the biofilm is then formed.
(§2) More specifically, the transwell system (24-well) has an upper chamber and a lower chamber which are separated from each other by a membrane of 0.4 μm. 500 μl of F. nucelatum (Fn) culture broth (the number of bacteria: 2×10^7 CFU/ml) was cultured in the upper chamber. A glass slip was placed in the lower chamber, and then the same number of P. gingivalis(Pg) or T. forsythia(Tf) was inoculated in 1 ml of medium and cultured for 48-72 hours. The same QSI candidates were added to the upper and lower chambers. As the QSI candidates, 2 mM of sugar (D-rib or D-gal) was used and 2 μM of the furanone compound [(5Z)-4-bromo-5-(bromomethylene)-2(5H)-furanone] was used. In order to examine whether biofilm formation of the bacteria in the lower chamber is influenced by Fn secretory material and QSI candidates, the biofilms formed on the glass slip were stained with crystal violet, and then quantified (see Examples 3 to 5).

[2] = system: T. forsythia (Tf) biofilm; test: Tf biofilm formation induced by Fn AI-2, fluorescence staining (confocal); type: cell-based, T. forsythia (ATCC 43037); conditions: D-rib or D-gal 200 mM
Description: Further, inhibitory effects of individual QSI candidates on Tf biofilm formation induced by Fn AI-2 were examined by fluorescence staining. 2 ml of Tf culture broth (the number of bacteria: 2×10^8/ml) was used, and Fn AI-2 was used in a volume of 10% (v/v) with respect to the total volume of a mixture with Tf culture broth. As the QSI candidates, 200 mM of D-rib or D-gal was used, and 20 μM of the furanone compound was used. Biofilms formed on the cover slip were stained with fluorescent materials using the live/dead-BacLight viability kit (Invitrogen, Grand Island, N.Y., USA) and observed using a confocal microscope (Carl Zeiss, LSM 700). […] Fluorescence intensities of the obtained individual fluorescence images were quantified using ZEN 2010 program of a confocal microscope, and shown in FIG. 9.

[3] = system: P. gingivalis (Pg) biofilm; test: Pg biofilm formation induced by Fn secretory material, transwell, crystal violet; type: cell-based; conditions: for OD590 nm: Fn upper / Pg lower chamber, sugar 2 mM, 48-72 h, Fn/Pg control 0.57, Pg alone 0.30
Description: as §1, §2

[4] = system: S. oxalis (So) biofilm; test: S. oxalis biofilm formation, crystal violet staining; type: cell-based, Streptococcus oxalis (ATCC 9811); conditions: for OD590: So on saliva-coated glass slip, sugar 2 mM, So control 0.59
Description: 2 mL (2×10^7/ml) of the culture broth of a representative cariogenic bacterium S. mutans (Sm) and 2 mL (2×10^7/ml) of the culture broth of one of normal oral flora, S. oxalis (SO) were added to a saliva-coated glass slip (round, 12 mm radius), respectively and cultured with 0 mM or 2 mM of D-galactose to form biofilms. […] Further, the biofilms were stained with fluorescent materials using the live/dead-BacLight viability kit (Invitrogen, Grand Island, N.Y., USA), followed by analysis. For comparison, 2 μM of the furanone compound was used instead of D-galactose to perform the same test.

[5] = system: T. forsythia (Tf) biofilm; test: Tf biofilm formation induced by Fn AI-2, crystal violet staining; type: cell-based, T. forsythia (ATCC 43037); conditions: for OD590 nm: Tf + Fn AI-2 10% (v/v), sugar 2 mM, 48-72 h, Tf/AI-2 control 0.48, Tf 0.32; for inhibitory effect on Tf biofilm formation, in words: crystal violet, sugars 2 mM
Description: To test biofilm formation by Tf, a test was performed in the same manner as in Example 3. That is, a Tf culture broth (2 ml; a negative control group, the number of bacteria: 2×10^8/ml), a mixture of Tf culture broth (2 ml) and Fn AI-2 (10% (v/v) with respect to the total volume of the mixture with Tf culture broth), or a mixture of Tf culture broth (2 ml) and Fn AI-2 (10% (v/v) with respect to the total volume of the mixture with Tf culture broth) and D-gal (2 mM) was added to a 24-well plate with a glass slip (round, 12 mm radius), and cultured under anaerobic conditions for 48-72 hours. For comparison, 2 mM of D-rib or 2 μM of the furanone compound [(5Z)-4-bromo-5-(bromomethylene)-2(5H)-furanone] was used instead of D-gal to perform the same test.
(§3) Biofilms formed on the cover slips were stained with 10% crystal violet [Tris(4-(dimethylamino)phenyl)methylium chloride] for 10 minutes, washed three times with PBS, and destained with 1 ml of acetone-alcohol (20:80, vol/vol). The optical density at 590 nm of the destaining solution containing crystal violet was measured using a microplate reader (a Wallac Victor3 microtiter, PerkinElmer Life Sciences, Waltham, Mass.). The smaller optical density (OD590) measured at 590 nm represents more inhibition of biofilm formation, that is, higher quorum sensing inhibitory effect of the used QSI candidate.

[6] = system: F. nucleatum (Fn) biofilm; test: Fn biofilm formation induced by Fn AI-2, crystal violet staining; type: cell-based, F. nucleatum (ATCC 25586); conditions: for OD590 nm: Fn + Fn AI-2 10% (v/v), sugar 2 mM, 48-72 h, smaller OD = more inhibition of biofilm, Fn/AI-2 control 1.5, Fn 0.46
Description: To test biofilm formation by Fn, a Fn culture broth (2 ml; a negative control group, the number of bacteria: 2×10^7/ml), a mixture of Fn culture broth (2 ml) and F. nucleatum AI-2 (purified from F. nucleatum secretary material of F. nucleatum culture broth using a C18 Sep-Pak reverse-phase column (Waters Co., Milford, Mass.); hereinafter, referred to as ‘Fn AI-2’; 10% (v/v) with respect to the total volume of the mixture with Fn culture broth), or a mixture of Fn culture broth (2 ml) and Fn AI-2 (10% (v/v) with respect to the total volume of the mixture with Fn culture broth) and each of QSI candidates was added to a 24-well plate with a glass slip (round, 12 mm radius), and cultured under anaerobic conditions for 48-72 hours. As the QSI candidates, sugars (D-rib, D-gal, D-Glu, D-Man, or D-ara) were used in an amount of 2 mM, and the furanone compound [(5Z)-4-bromo-5-(bromomethylene)-2(5H)-furanone] was used in an amount of 2 μM.
as §3

[7] = D-gal 2 mM compared to D-rib 2 mM

Row | Structure (SMILES) | inhibitory effect on Tf biofilm formation induced by Fn secretory material, in words [1, 7] | OD590 [1] | inhibitory effect on Tf biofilm formation, in words [2] | inhibitory effect on Pg biofilm formation induced by Fn secretory material, in words [3, 7] | OD590 nm [3] | OD590 [4] | effect on So biofilm formation, in words ([4]; crystal violet, D-gal 2 mM compared to D-rib and the furanone compound) | OD590 nm [5] | inhibitory effect on Tf biofilm formation, in words [5] | OD590 nm [6] | QSI inhibitory effect (inhibitory effect on Fn biofilm formation), in words ([6]; crystal violet, sugars 2 mM, compared to negative control Fn/AI-2)
1 | O=C[C@H](O)[C@@H](O)[C@@H](O)[C@H](O)CO [D-gal, D-galactose] | remarkably excellent inhibitory effect, compared to D-rib | 0.36 | most excellent inhibitory effect | remarkably excellent inhibitory effect, compared to D-rib | 0.45 | 1.07 | did not inhibit but increased biofilm formation | 0.2 | excellent inhibitory effect | 0.57 | excellent QSI inhibitory effect
2 | O=C[C@H](O)[C@H](O)[C@H](O)CO [D-rib, D-ribose, reference compound] | – | 0.69 | inhibited | – | 0.58 | 0.85 | – | 0.41 | significant inhibitory effect | 0.77 | –
